The values below come from ChEMBL document CHEMBL5634093, “Elemental exchange: Bioisosteric replacement of phosphorus by boron in drug design” (Eur J Med Chem, 2023).

One experiment has as its system Toxoplasma gondii. Put plainly: Antiparasitic activity against Toxoplasma gondii tachyzoites infected in human HeLa cells. The format is functional, organism-based.
The next experiment has as its system Trypanosoma cruzi. Put plainly: Antitrypanosomal activity against Trypanosoma cruzi trypomastigotes assessed as parasite growth inhibition. The class given is functional, organism-based.
Experiment [1] is described as follows: Binding affinity to PDE4 (unknown origin) expressed in Escherichia coli using cAMP as substrate assessed as inhibition constant by fluorescence polarization assay. Also on record: species or system Homo sapiens.
Experiment [2] in a line: Inhibition of human recombinant catalytic domain PDE4 (152 to 484 residues) by fluorescence polarization assay. For orientation: Polarisation of emitted light reports the rotation of a fluorescent probe.
The target in a further experiment is Autotaxin (Homo sapiens, UniProt Q13822). Nature of the experiment: Inhibition of ATX (unknown origin).

Converted amounts (≈) assume the structure as drawn.

On to `O=C(O)CCc1cccc2c1B(O)OC2`, for which, in the experiment on Toxoplasma gondii, the IC50 was 900 nM.
Take `COc1cc(C(=O)/C=C/c2ccc3c(c2)B(O)OC3)ccc1N`: in the experiment with Trypanosoma cruzi, the IC50 is 0.01 µg/mL (≈ 0.0323 µM).
With `N#Cc1ccc(Oc2ccc3c(c2)COB3O)cc1C#N`, the Ki in experiment [1] is 65 nM.
For the compound `CC(=O)CCCOc1cc(C#N)c(Cl)nc1Oc1ccc2c(c1)COB2O`, in experiment [2], the IC50 turned out to be 0.32 nM.
Same read-out and setting: the value for `CC(C)OCCOc1cc(C#N)cnc1Oc1ccc2c(c1)COB2O` was 3 nM.
On Autotaxin, `O=C(OCc1cc(Cl)cc(Cl)c1)N1CCN(C2CN(C(=O)c3ccc4c(c3)COB4O)C2)CC1` yielded an IC50 of 130 nM.
Compound `O=C1N=C(N2CCN(Cc3ccc(B(O)O)cc3)CC2)S/C1=C/c1ccc(Cl)c(Cl)c1` came in with an IC50 against Autotaxin of 13 nM.
For the compound `N#Cc1ccc(Oc2ccc3c(c2)COB3O)cc1` [CRISABOROLE], in experiment [1], the Ki was found to be 173 nM.

The IC50 is the point on the concentration scale where inhibition reaches its midpoint. By Ki is commonly meant a measure of affinity in units of concentration, obtained from inhibition or displacement.
